{
  "source": "patent US20030143586A1",
  "about": "“Genetic hypermutability of plants for gene discovery and diagnosis” (priority 2001, published 2003)",
  "key": {"[1]": {"test_system": "horseweed (Conyza canadensis)", "assay": "Glyphosate applied to horseweed plants to confirm sensitivity to the herbicide", "assay_type": "in vivo", "protocol": "Isolation and modification of the genomic DNA: Total horseweed (Conyza Canadensis) genomic DNA was isolated from 100 mg of leaves using Plant DNAZol as described by the manufacturer (Invitrogen). The typical yield was 10-20 μg DNA per preparation. Two different biotypes of horseweed were used as source of the DNA and were designated HR and HS.\nAnalysis of the DNA Marker: Horseweeds were either germinated from seeds or seedlings were transferred from the field into the greenhouse. DNAs from the genomes of HR and HS horseweeds were isolated. At the same time, glyphosate was applied at 2 lb active ingredient/acre rate to confirm the plants' sensitivity to the herbicide."}, "[2]": {"test_system": "Conyza canadensis field populations", "conditions": "cited from earlier work"}},
  "data": [
    {"compound": "O=C(O)CNCP(=O)(O)O", "note": "[Glyphosate, glyphosate]", "values": [
      {"measurement": "response to glyphosate treatment", "setting": "[1]; horseweed biotype designated HR (DNA source, Example 4)", "result": "tolerance"},
      {"measurement": "response to glyphosate treatment", "setting": "[1]; horseweed biotype designated HS (DNA source, Example 4)", "result": "sensitive"},
      {"measurement": "field populations naturally resistant to glyphosate", "setting": "[2]", "result": "approximately 15%"}
    ]}
  ]
}
